Test results: ChEMBL document CHEMBL1149889, “ent-Kaurane Diterpenoids from Isodon nervosus” (J Nat Prod, 2008)

Legend:
Type in all cases: functional, cell-based
K562 = assay: Cytotoxicity against human K562 cells
A549 = assay: Cytotoxicity against human A549 cells
HepG2 = assay: Cytotoxicity against human HepG2 cells

SMILES: C=C1[C@@H]2C[C@H](O)[C@@H]3[C@@](CC(=O)[C@@H]4C(C)(C)[C@@H](O)C[C@H](O)[C@]43C)(C2)[C@@H]1OC(C)=O [NERVONIN J]
- IC50 (K562): > 100 µM
- IC50 (A549): > 100 µM
- IC50 (HepG2): > 100 µM

SMILES: C=C1[C@@H]2C[C@H](OC(C)=O)[C@H]3[C@@]4(C)[C@H]([C@@H](O)[C@H](OC(C)=O)[C@]3(C2)[C@@H]1O)C(C)(C)[C@@H](O)C[C@@H]4O [NERVONIN I]
- IC50 (K562): > 100 µM
- IC50 (A549): > 100 µM
- IC50 (HepG2): > 100 µM

SMILES: C=C1[C@@H]2C[C@H](OC(C)=O)[C@H]3[C@]4(C)[C@@H](OC(C)=O)C[C@H](O)C(C)(C)[C@H]4[C@@H](O)[C@H](OC(C)=O)[C@]3(C2)[C@@H]1OC(C)=O [NERVONIN D]
- IC50 (K562): > 100 µM
- IC50 (A549): > 100 µM
- IC50 (HepG2): > 100 µM

SMILES: C=C1[C@@H]2C[C@H](OC(C)=O)[C@H]3[C@@]4(C)[C@H](C[C@H](OC(C)=O)[C@]3(C2)[C@@H]1O)C(C)(C)[C@@H](O)C[C@@H]4O [NERVONIN H]
- IC50 (K562): > 100 µM
- IC50 (A549): > 100 µM
- IC50 (HepG2): > 100 µM

SMILES: C=C1[C@@H]2C[C@H](OC(C)=O)[C@H]3[C@]4(C)[C@@H](OC(C)=O)C[C@H](O)C(C)(C)[C@H]4C(=O)[C@H](OC(C)=O)[C@]3(C2)[C@@H]1O [ADENANTHIN J]
- IC50 (K562): > 100 µM
- IC50 (A549): > 100 µM
- IC50 (HepG2): > 100 µM

SMILES: C=C1[C@@H]2C[C@H](OC(C)=O)[C@H]3[C@]4(C)[C@@H](OC(C)=O)C[C@H](O)C(C)(C)[C@H]4C(=O)[C@H](O)[C@]3(C2)[C@@H]1O [NERVONIN E]
- IC50 (K562): > 100 µM
- IC50 (A549): > 100 µM
- IC50 (HepG2): > 100 µM

SMILES: C=C1C(=O)[C@]23C[C@H]1C[C@H](OC(C)=O)[C@H]2[C@]1(C)[C@@H](OC(C)=O)C[C@H](O)C(C)(C)[C@H]1C(=O)[C@@H]3OC(C)=O [ADENANTHIN]
- IC50 (K562): 1.05 µM
- IC50 (A549): 8.07 µM
- IC50 (HepG2): 0.32 µM

SMILES: C=C1C(=O)[C@]23C[C@H]1C[C@H](OC(C)=O)[C@H]2[C@]1(C)[C@@H](OC(C)=O)C[C@H](O)C(C)(C)[C@H]1[C@@H](O)[C@@H]3OC(C)=O [WEISIENSIN A]
- IC50 (K562): 4.11 µM
- IC50 (A549): 1.88 µM
- IC50 (HepG2): 1.43 µM

SMILES: C=C1[C@@H]2C[C@H](O)[C@H]3[C@]4(C)[C@@H](OC(C)=O)C[C@H](O)C(C)(C)[C@H]4[C@@H](O)[C@H](OC(C)=O)[C@]3(C2)[C@@H]1O [NERVONIN F]
- IC50 (K562): > 100 µM
- IC50 (A549): > 100 µM
- IC50 (HepG2): > 100 µM

SMILES: C=C1[C@@H]2C[C@H](O)[C@H]3[C@]4(C)[C@@H](OC(C)=O)C[C@H](O)C(C)(C)[C@H]4[C@@H](OC(C)=O)[C@H](OC(C)=O)[C@]3(C2)[C@@H]1O [NERVONIN G]
- IC50 (K562): > 100 µM
- IC50 (A549): > 100 µM
- IC50 (HepG2): > 100 µM

SMILES: C=C1[C@@H]2C[C@H](OC(C)=O)[C@H]3[C@]4(C)[C@@H](OC(C)=O)C[C@H](O)C(C)(C)[C@H]4C(=O)[C@H](OC(C)=O)[C@]3(C2)[C@@H]1OC(C)=O [NERVOSANIN]
- IC50 (K562): > 100 µM
- IC50 (A549): > 100 µM
- IC50 (HepG2): > 100 µM

SMILES: C=C1[C@@H]2C[C@H](OC(C)=O)[C@H]3[C@@]4(C)[C@H](C(=O)[C@H](OC(C)=O)[C@]3(C2)[C@@H]1OC(C)=O)C(C)(C)[C@@H](O)C[C@@H]4O [NERVONIN C]
- IC50 (K562): > 100 µM
- IC50 (A549): > 100 µM
- IC50 (HepG2): > 100 µM

SMILES: C=C1[C@@H]2C[C@H](OC(C)=O)[C@H]3[C@]4(C)[C@@H](OC(C)=O)C[C@H](O)C(C)(C)[C@H]4[C@H](O)[C@H](OC(C)=O)[C@]3(C2)[C@@H]1O [FORRESTIN C]
- IC50 (K562): > 100 µM
- IC50 (A549): > 100 µM
- IC50 (HepG2): > 100 µM

SMILES: C=C1[C@@H]2C[C@H](OC(C)=O)[C@H]3[C@]4(C)[C@@H](OC(C)=O)C[C@H](O)[C@]5(C)C[C@@](O)([C@H]54)[C@H](OC(C)=O)[C@]3(C2)[C@@H]1OC(C)=O [NERVONIN A]
- IC50 (K562): > 100 µM
- IC50 (A549): > 100 µM
- IC50 (HepG2): > 100 µM

SMILES: C=C1C(=O)[C@]23C[C@H]1C[C@H](OC(C)=O)[C@H]2[C@@]1(C)[C@H](C(=O)[C@@H]3OC(C)=O)C(C)(C)[C@@H](O)C[C@@H]1O [CALCICOLIN B]
- IC50 (K562): 1.55 µM
- IC50 (A549): 8.5 µM
- IC50 (HepG2): 0.52 µM

SMILES: C=C1[C@@H]2C[C@H](O)[C@H]3[C@@]4(C)[C@H]([C@@H](O)[C@H](OC(C)=O)[C@]3(C2)[C@@H]1O)C(C)(C)[C@@H](OC(C)=O)C[C@@H]4O [FORRESTIN B]
- IC50 (K562): > 100 µM
- IC50 (A549): > 100 µM
- IC50 (HepG2): > 100 µM

SMILES: C=C1C(=O)[C@]23C[C@H]1C[C@H](OC(C)=O)[C@H]2[C@]1(C)[C@@H](OC(C)=O)C[C@H](O)C(C)(C)[C@H]1[C@@H](OC(C)=O)[C@@H]3OC(C)=O [CALCICOLIN A]
- IC50 (K562): 2.39 µM
- IC50 (A549): 12.2 µM
- IC50 (HepG2): 0.51 µM

SMILES: C=C1C(=O)[C@]23C[C@H]1C[C@H](OC(C)=O)[C@H]2[C@@]1(C)[C@H]([C@@H](OC(C)=O)[C@@H]3OC(C)=O)C(C)(C)[C@@H](O)C[C@@H]1O [NERVONIN B]
- IC50 (K562): 1.18 µM
- IC50 (A549): 1.53 µM
- IC50 (HepG2): 1.16 µM

SMILES: C=C1[C@@H]2C[C@H](O)[C@H]3[C@@]4(C)[C@H](C[C@H](OC(C)=O)[C@]3(C2)[C@@H]1O)C(C)(C)[C@@H](OC(C)=O)C[C@@H]4O [ADENANTHIN E]
- IC50 (K562): > 100 µM
- IC50 (A549): > 100 µM
- IC50 (HepG2): > 100 µM

SMILES: C=C1[C@@H]2C[C@H](OC(C)=O)[C@H]3[C@]4(C)[C@@H](OC(C)=O)C[C@H](O)C(C)(C)[C@H]4C(=O)[C@H](O)[C@]3(C2)[C@@H]1OC(C)=O [ADENANTHIN K]
- IC50 (K562): > 100 µM
- IC50 (A549): > 100 µM
- IC50 (HepG2): > 100 µM
